For experiment [1], the target named is T1, TDO (Homo sapiens, UniProt P48775). Kind of experiment: hTDO biochemical coupled assay. To be noted: 330 μM L-tryptophan, 17 minutes, room temperature; read-out: hTDO biochemical assay pIC50 (converted).
In experiment [2] the target is T2, IDO (Homo sapiens, UniProt P14902). Kind of experiment: hIDO biochemical coupled assay. To be noted: 45 μM L-tryptophan, read-out: hIDO biochemical assay pIC50 (converted).
Experiment [3] has as its target T2, IDO. Briefly: SKOV3 kynurenine cell-based assay (IDO induced by IFN-γ). More on the design: IDO expression was induced in the SKOV3 cells by the addition of 500 ng/ml IFN-γ; endogenous in cells; host or cells: SKOV3 (human ovarian adenocarcinoma), induced with IFN-γ. Conditions: 48 hours, read-out: SKOV3 Kynurenine cell based assay pIC50 (converted). The essentials:
(§1)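 A172 glioblastoma cells (TDO) or SKOV3 ovarian cells (IDO, induced with 500 ng/ml IFN-γ) were grown in phenol red-free RPMI with 10% FCS, 2 mM L-glutamine and 500 μM L-tryptophan, ± test compound, 48 hours at 37° C. Supernatant kynurenine was measured by absorbance at 490 nm after Erhlich's reagent.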

Experiment [4] has as its target T1, TDO. Kind of experiment: A172 kynurenine cell-based assay. Conditions: A172 human glioblastoma cells, 48 hours, read-out: A172 Kynurenine cell based assay pIC50 (converted). More on the design: This assay utilised cancer cells which expressed either TDO or IDO; endogenous in cells; host or cells: A172 (human glioblastoma). The essentials: as §1
Where [5] appears, read: SKOV3 human ovarian adenocarcinoma cells, 500 ng/ml IFN-γ, 500 μM L-tryptophan.

The structures appear in SMILES notation. Some results are limits rather than exact numbers.

T2 sequence (P14902 whole entry): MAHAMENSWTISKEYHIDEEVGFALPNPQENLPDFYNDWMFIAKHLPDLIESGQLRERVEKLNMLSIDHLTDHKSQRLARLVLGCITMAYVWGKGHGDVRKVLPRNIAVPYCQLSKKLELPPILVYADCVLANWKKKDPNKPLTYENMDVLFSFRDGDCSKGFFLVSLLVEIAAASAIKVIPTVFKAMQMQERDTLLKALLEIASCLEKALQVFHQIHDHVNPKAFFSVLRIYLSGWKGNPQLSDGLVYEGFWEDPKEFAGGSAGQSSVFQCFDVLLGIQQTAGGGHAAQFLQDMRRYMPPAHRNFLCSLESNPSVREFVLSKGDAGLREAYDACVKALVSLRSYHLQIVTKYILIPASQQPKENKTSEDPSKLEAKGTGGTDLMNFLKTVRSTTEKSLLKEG
T1 sequence (P48775 whole entry): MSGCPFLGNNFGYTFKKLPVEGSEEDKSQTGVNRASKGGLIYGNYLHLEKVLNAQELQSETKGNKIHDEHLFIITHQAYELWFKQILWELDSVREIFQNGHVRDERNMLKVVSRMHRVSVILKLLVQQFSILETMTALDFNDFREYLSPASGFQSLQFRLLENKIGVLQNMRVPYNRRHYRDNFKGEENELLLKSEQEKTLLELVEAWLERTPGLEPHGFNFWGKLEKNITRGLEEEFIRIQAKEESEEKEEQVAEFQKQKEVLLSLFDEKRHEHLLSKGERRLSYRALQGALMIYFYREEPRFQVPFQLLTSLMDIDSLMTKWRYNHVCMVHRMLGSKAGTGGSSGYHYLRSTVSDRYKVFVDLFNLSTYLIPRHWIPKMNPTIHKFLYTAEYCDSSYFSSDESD

`O=S(=O)(Nc1cccc2[nH]ncc12)c1ccccc1` [Compound 2]: the IC50 on TDO [1] is 32.4 to 100 µM; on IDO [2] (17 minutes, room temperature) it was > 100 µM.

In the case of `CS(=O)(=O)NCCOc1cccc2[nH]ncc12` [Compound 35], the IC50 is 3.24 to 31.6 µM at TDO [1] and > 100 µM on IDO [2] (17 minutes, room temperature).

Regarding `CC(C)CS(=O)(=O)Nc1cccc2[nH]ncc12` [Compound 8], the IC50 is 3.24 to 31.6 µM on TDO [1] and > 100 µM at IDO [2] (17 minutes, room temperature).

For the molecule `CC(=O)N1CCN(c2cc(OC(F)(F)F)cc3[nH]ncc23)CC1` [Compound 244], the IC50 was 32.4 to 100 µM at IDO [3] (setting [5]); > 100 µM at IDO [2] (17 minutes, room temperature); 32.4 to 100 µM at TDO [4] (500 μM L-tryptophan).

On to `CC(=O)NC1CCC(c2cc(Cl)cc3[nH]ncc23)CC1` (mixture of isomers) [Compound 155, N-(4-(6-chloro-1H-indazol-4-yl)cyclohexyl) acetamide], for which the IC50 on IDO [3] (SKOV3 cells, IDO induced by 500 ng/ml IFN-γ) is 12.3 µM; at IDO [3] (setting [5]), 3.24 to 31.6 µM; at IDO [2], 191 µM; on TDO [4] (500 μM L-tryptophan), < 3.16 µM; on TDO [4], 0.24 µM.

`CN1C(=O)CCC12CCN(c1cc(Cl)cc3[nH]ncc13)CC2` [Compound 245]: the IC50 at IDO [3] (setting [5]) is 3.24 to 31.6 µM; on IDO [2] (17 minutes, room temperature), 3.24 to 31.6 µM; on TDO [4] (500 μM L-tryptophan) it was < 3.16 µM.

For the molecule `CC(=O)N1CCN(c2cccc3cnn(C)c23)CC1` [Compound 38], the IC50 at TDO [1] is 32.4 to 100 µM; on IDO [2] (17 minutes, room temperature) it was 32.4 to 100 µM.

As for `Clc1cc(N2CCC(c3ncc[nH]3)CC2)c2cn[nH]c2c1` [Compound 235], the IC50 is 3.24 to 31.6 µM on IDO [3] (setting [5]); > 100 µM on IDO [2] (17 minutes, room temperature); < 3.16 µM on TDO [4] (500 μM L-tryptophan).

Turning to `CS(=O)(=O)N1CC2CCC1CN2c1cc(Cl)cc2[nH]ncc12` (stereo not drawn) [Compound 230], the IC50 at IDO [3] (setting [5]) was 32.4 to 100 µM; on IDO [2] (17 minutes, room temperature), > 100 µM; at TDO [4] (500 μM L-tryptophan), < 3.16 µM.

For `CS(=O)(=O)N1CCN(c2cc(OC(F)(F)F)cc3[nH]ncc23)CC1` [Compound 221], the IC50 was 32.4 to 100 µM at IDO [3] (setting [5]); > 100 µM at IDO [2] (17 minutes, room temperature); 3.24 to 31.6 µM at TDO [4] (500 μM L-tryptophan).

On to `CC(C)COc1cccc2[nH]ncc12` [Compound 262], for which the IC50 on IDO [3] (setting [5]) is 3.24 to 31.6 µM; on IDO [2] (17 minutes, room temperature), > 100 µM; on TDO [4] (500 μM L-tryptophan), > 100 µM.

On to `O=C(NCC1CCCCC1)c1cc(Cl)cc2[nH]ncc12` [Compound 258], for which the IC50 on IDO [3] (setting [5]) is 3.24 to 31.6 µM; on IDO [2] (17 minutes, room temperature) it was > 100 µM; on TDO [4] (500 μM L-tryptophan), > 100 µM.

For `CC(C)c1cc(C2CCN(S(C)(=O)=O)CC2)c2cn[nH]c2c1` [Compound 223], the IC50 on IDO [3] (setting [5]) is 32.4 to 100 µM; at IDO [2] (17 minutes, room temperature) it was 3.24 to 31.6 µM; at TDO [4] (500 μM L-tryptophan), 3.24 to 31.6 µM.

For `CC(=O)N1CC2CCC1CN2c1cc(Cl)cc2[nH]ncc12` (stereo not drawn) [Compound 233], the IC50 at IDO [3] (setting [5]) was 3.24 to 31.6 µM; at IDO [2] (17 minutes, room temperature) it was 32.4 to 100 µM; on TDO [4] (500 μM L-tryptophan) it was < 3.16 µM.

Consider `O=C(Nc1cccc2[nH]ncc12)C1CCOCC1` [Compound 5], for which the IC50 at TDO [1] is 32.4 to 100 µM; at IDO [2] (17 minutes, room temperature), > 100 µM.

On to `CS(=O)(=O)NCc1ccc(-c2cc(Cl)cc3[nH]ncc23)cc1` [Compound 292], for which the IC50 on IDO [3] (setting [5]) was 3.24 to 31.6 µM; at IDO [2] (17 minutes, room temperature), > 100 µM; on TDO [4] (500 μM L-tryptophan), < 3.16 µM.

For `CC(=O)NCc1ccc(-c2cc(Cl)cc3[nH]ncc23)cc1` [Compound 276], the IC50 at IDO [3] (setting [5]) is 3.24 to 31.6 µM; on IDO [2] (17 minutes, room temperature) it was > 100 µM; at TDO [4] (500 μM L-tryptophan), < 3.16 µM.

As to `CN(C)C(=O)C1CCN(c2cc(Cl)cc3[nH]ncc23)CC1` [Compound 225], the IC50 at IDO [3] (setting [5]) was 3.24 to 31.6 µM; at IDO [2] (17 minutes, room temperature), 3.24 to 31.6 µM; on TDO [4] (500 μM L-tryptophan), 3.24 to 31.6 µM.

In the case of `CS(=O)(=O)NC1CCCN(c2cc(Cl)cc3[nH]ncc23)C1` (stereo not drawn) [Compound 229], the IC50 was 32.4 to 100 µM on IDO [3] (setting [5]); > 100 µM at IDO [2] (17 minutes, room temperature); 3.24 to 31.6 µM at TDO [4] (500 μM L-tryptophan).

`CS(=O)(=O)Nc1ccc(-c2cc(Cl)cc3[nH]ncc23)cc1` [Compound 220]: the IC50 on IDO [3] (setting [5]) is 3.24 to 31.6 µM; at IDO [2] (17 minutes, room temperature), > 100 µM; at TDO [4] (500 μM L-tryptophan) it was < 3.16 µM.

Regarding `CCNC(=O)c1cc(Cl)cc2[nH]ncc12` [Compound 261], the IC50 is > 100 µM on IDO [3] (setting [5]); > 100 µM at IDO [2] (17 minutes, room temperature); 32.4 to 100 µM at TDO [4] (500 μM L-tryptophan).

As for `CC(C)NC(=O)c1cc(Cl)cc2[nH]ncc12` [Compound 236], the IC50 on IDO [3] (setting [5]) was 32.4 to 100 µM; at IDO [2] (17 minutes, room temperature), > 100 µM; at TDO [4] (500 μM L-tryptophan), 32.4 to 100 µM.

As to `CC(C)CNC(=O)c1cc(Cl)cc2[nH]ncc12` [Compound 238], the IC50 on IDO [3] (setting [5]) was 32.4 to 100 µM; at IDO [2] (17 minutes, room temperature) it was > 100 µM; on TDO [4] (500 μM L-tryptophan), 3.24 to 31.6 µM.

As to `CN(C)C(=O)C1CCN(c2cc(Cl)cc3[nH]ncc23)C1` (stereo not drawn) [Compound 263], the IC50 was 3.24 to 31.6 µM at IDO [3] (setting [5]); 3.24 to 31.6 µM on IDO [2] (17 minutes, room temperature); 3.24 to 31.6 µM at TDO [4] (500 μM L-tryptophan).

As for `Cn1ncc2cccc(N3CCN(S(C)(=O)=O)CC3)c21` [Compound 37], the IC50 is 32.4 to 100 µM on TDO [1] and 32.4 to 100 µM on IDO [2] (17 minutes, room temperature).

Regarding `O=C(c1cc(Cl)cc2[nH]ncc12)N1CCCCC1` [Compound 274], the IC50 on IDO [3] (setting [5]) is 32.4 to 100 µM; on IDO [2] (17 minutes, room temperature), > 100 µM; on TDO [4] (500 μM L-tryptophan) it was 3.24 to 31.6 µM.

`O=C(NCc1ccccc1)c1cc(Cl)cc2[nH]ncc12` [Compound 237]: the IC50 on IDO [3] (setting [5]) is 32.4 to 100 µM; at IDO [2] (17 minutes, room temperature) it was > 100 µM; on TDO [4] (500 μM L-tryptophan), 32.4 to 100 µM.

As to `O=C(Nc1cccc2[nH]ncc12)c1ccccc1` [Compound 9], the IC50 is 32.4 to 100 µM at TDO [1] and > 100 µM on IDO [2] (17 minutes, room temperature).

For `CNc1ccc(-c2cc(Cl)cc3[nH]ncc23)cn1` [Compound 241], the IC50 at IDO [3] (setting [5]) is 3.24 to 31.6 µM; at IDO [2] (17 minutes, room temperature), > 100 µM; on TDO [4] (500 μM L-tryptophan) it was 3.24 to 31.6 µM.

Turning to `CN(C1CCCN(c2cc(Cl)cc3[nH]ncc23)C1)S(C)(=O)=O` (stereo not drawn) [Compound 242], the IC50 at IDO [3] (setting [5]) is 32.4 to 100 µM; at IDO [2] (17 minutes, room temperature), > 100 µM; on TDO [4] (500 μM L-tryptophan), 3.24 to 31.6 µM.

`CS(=O)(=O)N1CCN(c2cc(F)cc3[nH]ncc23)CC1` [Compound 44]: the IC50 on TDO [1] is < 3.16 µM; on IDO [2] (17 minutes, room temperature) it was > 100 µM.

For the molecule `COc1cc(-c2cc(Cl)cc3[nH]ncc23)ccc1S(C)(=O)=O` [Compound 296], the IC50 at IDO [3] (setting [5]) was 3.24 to 31.6 µM; on IDO [2] (17 minutes, room temperature), > 100 µM; on TDO [4] (500 μM L-tryptophan), 3.24 to 31.6 µM.

Regarding `COC(=O)c1ccc(-c2cc(Cl)cc3[nH]ncc23)cc1` [Compound 240], the IC50 at IDO [3] (setting [5]) is 3.24 to 31.6 µM; at IDO [2] (17 minutes, room temperature) it was > 100 µM; on TDO [4] (500 μM L-tryptophan) it was < 3.16 µM.

For `CC(=O)N(C)c1ccc(-c2cc(Cl)cc3[nH]ncc23)cc1` [Compound 248], the IC50 is 3.24 to 31.6 µM at IDO [3] (setting [5]); 3.24 to 31.6 µM on IDO [2] (17 minutes, room temperature); < 3.16 µM at TDO [4] (500 μM L-tryptophan).

Consider `CS(=O)(=O)N1CCN(c2cc(Cl)cc3[nH]ncc23)C2CCCCC21` (single isomer, unassigned) [Compound 386], for which the IC50 on TDO [1], at IDO [3] (setting [5]) and at TDO [4] (500 μM L-tryptophan) was 3.24 to 31.6 µM in each case.

Consider `COC(=O)C1CCN(c2cc(Cl)cc3[nH]ncc23)CC1` [Compound 234], for which the IC50 at IDO [3] (setting [5]) was 32.4 to 100 µM; at IDO [2] (17 minutes, room temperature) it was 3.24 to 31.6 µM; on TDO [4] (500 μM L-tryptophan), < 3.16 µM.

As to `CN(c1ccc(-c2cc(Cl)cc3[nH]ncc23)cc1)S(C)(=O)=O` [Compound 239], the IC50 at IDO [3] (setting [5]) was 3.24 to 31.6 µM; at IDO [2] (17 minutes, room temperature), 32.4 to 100 µM; on TDO [4] (500 μM L-tryptophan) it was < 3.16 µM.

Consider `CC(=O)NCC1CCN(c2cc(Cl)cc3[nH]ncc23)CC1` [Compound 270], for which the IC50 was 3.24 to 31.6 µM on IDO [3] (setting [5]); 3.24 to 31.6 µM at IDO [2] (17 minutes, room temperature); < 3.16 µM on TDO [4] (500 μM L-tryptophan).

For the molecule `CN(C1CCN(c2cc(Cl)cc3[nH]ncc23)C1)S(C)(=O)=O` (stereo not drawn) [Compound 243], the IC50 is 3.24 to 31.6 µM on IDO [3] (setting [5]); 32.4 to 100 µM on IDO [2] (17 minutes, room temperature); < 3.16 µM at TDO [4] (500 μM L-tryptophan).
